Experimental data taken from article PMC2323292, “Immunodominant Tuberculosis CD8 Antigens Preferentially Restricted by HLA-B” (PLoS Pathogens, 2007).
Like-named read-outs stand apart in the source and are kept apart here.

Key:
[1] = test system: CD8+ T cells; conditions: donor 160; ex vivo, autologous DCs pulsed with epitope; clones published previously ref 17; cited from earlier work
Source text: Table 3 Summary of CD8+ T Cell Epitopes Identified | column: Epitope-Specific T Cells^a

[2] = test system: CD8+ T cells; test: Ex vivo IFN-γ ELISPOT, CD8+ T cells with peptide-pulsed autologous DCs; type: cell-based, human; conditions: donor 443 (LTBI), linear regression

Sequence	Epitope-Specific T Cells [1]	Epitope-Specific T Cells [2]
RADEEQQQAL	120 IFN-γ spot forming units per 2	–
ELPQWLSANR	–	<10 IFN-γ spot forming units per 2
